Here are results for 4 molecules from patent publication US7910612B2, “4-oxy-N-[1,3,4]-thiadiazol-2-yl-benzene sulfonamides, pharmaceutical compositions and methods for their therapeutic use” (Sanofi-Aventis, priority 2005, dated 2011).

One assay has as its system diabetic animal model. The settings on record: cited from earlier work.
A further assay has as its system rhesus monkeys. The settings on record: cited from earlier work.
Another assay deals with cynomolgus monkeys. The settings on record: cited from earlier work.
Another assay has as its system healthy volunteers. As to conditions: two weeks clinical trials in healthy volunteers; cited from earlier work.
The target of another assay is T1, human PPARdelta (Homo sapiens, UniProt Q03181).
T1 construct: amino acids S139-Y441; expressed in transfected cells; host or cells: HEK (human embryo kidney) cells, stably transfected, pcDNA3 vector
T1 sequence (Q03181 139-441): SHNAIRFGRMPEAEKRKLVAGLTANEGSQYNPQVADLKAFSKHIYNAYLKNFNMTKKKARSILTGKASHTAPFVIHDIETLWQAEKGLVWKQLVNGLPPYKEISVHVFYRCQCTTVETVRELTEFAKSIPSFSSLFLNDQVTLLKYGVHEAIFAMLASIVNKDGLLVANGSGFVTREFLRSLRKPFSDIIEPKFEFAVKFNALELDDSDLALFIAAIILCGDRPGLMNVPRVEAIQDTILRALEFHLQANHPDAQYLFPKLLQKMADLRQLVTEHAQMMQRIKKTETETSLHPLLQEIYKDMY
As to the kind of experiment: cellular PPARdelta assay (stably transfected HEK luciferase reporter cell line). Type of assay: cell-based. Here is the method:
The potency of substances which bind to human PPARdelta and activate it in an agonistic manner is analyzed using a stably transfected HEK cell line (HEK=human embryo kidney) which is referred to here as PPARdelta reporter cell line. In analogy to the assay described for PPARalpha, the PPARdelta reporter cell line also contains two genetic elements, a luciferase reporter element (pdeltaM-GAL4-Luc-Zeo) and a PPARdelta fusion protein (GR-GAL4-humanPPARdelta-LBD) which mediates expression of the luciferase reporter element depending on a PPARdelta ligand. The stably and constitutively expressed fusion protein GR-GAL4-humanPPARdelta-LBD binds in the cell nucleus of the PPARdelta reporter cell line via the GAL4 protein portion to the GAL4 DNA binding motifs 5′-upstream of the luciferase reporter element which is stably integrated in the genome of the cell line. There is only little expression of the luciferase reporter gene in the absence of a PPARdelta ligand if fatty acid-depleted fetal calf serum (cs-FCS) is used in the assay. PPARdelta ligands bind and activate the PPARdelta fusion protein and thereby stimulate expression of the luciferase reporter gene. The luciferase which is formed can be detected by means of chemiluminescence via an appropriate substrate.
The production of the stable PPARdelta reporter cell line is based on a stable HEK-cell clone which was stably transfected with a luciferase reporter element. This step was already described above in the section “construction of the PPARalpha reporter cell line”. In a second step, the PPARdelta fusion protein (GR-GAL4-humanPPARdelta-LBD was stably introduced into this cell clone. For this purpose, the cDNA coding for the N-terminal 76 amino acids of the glucocorticoid receptor (Accession #P04150) was linked to the cDNA section coding for amino acids 1-147 of the yeast transcription factor GAL4 (Accession #P04386). The cDNA of the ligand-binding domain of the human PPARdelta receptor (amino acids S139-Y441; Accession #L07592) was cloned in at the 3′-end of this GR-GAL4 construct. The fusion construct prepared in this way (GR-GAL4-humanPPARdelta-LBD) was recloned into the plasmid pcDNA3 (Invitrogen) in order to enable constitutive expression by the cytomegalovirus promoter. This plasmid was linearized with a restriction endonuclease and stably transfected into the previously described cell clone containing the luciferase reporter element. The resulting PPARdelta reporter cell line which contains a luciferase reporter element and constitutively expresses the PPARdelta fusion protein (GR-GAL4-human PPARdelta-LBD) was isolated by selection with zeocin (0.5 mg/ml) and G418 (0.5 mg/ml).
The activity of PPARdelta agonists is determined in a 3-day assay in exact analogy to the procedure already described for the PPARalpha reporter cell line except that the PPARdelta reporter cell line and a specific PPARdelta agonist was used as a standard to control test efficacy. […] Compounds of the invention of the formula I activate the PPARdelta receptor.
In general terms: In a reporter assay the amount or activity of a reporter protein is the signal.

The subject of assay [1] is obese, insulin resistant rhesus monkeys. As to conditions: cited from earlier work.

Turning to `CCCc1c(OCCCOc2ccc(OCC(=O)O)cc2)ccc(C(C)=O)c1O` [Example L-165041], the plasma cholesterol entry in the assay on diabetic animal model was “raises plasma cholesterol”.
Take `CCCc1c(OCCCSc2nnc(SCC(=O)O)s2)ccc(C(C)=O)c1O` [YM-16638]: the plasma lipids result in the assay on rhesus monkeys was “significantly lowers plasma lipids”; in the assay on cynomolgus monkeys it was “significantly lowers plasma lipids”; in the assay on healthy volunteers it was “acts in a similar manner”.
As usually defined, the EC50 is the concentration needed to bring the measured effect to its halfway point. Higher therefore signals a less potent agent. `COc1ccc2oc(COc3ccc(S(=O)(=O)Nc4nnc(C(C)C)s4)cc3)cc2c1` [Example 12, N-(5-Isopropyl-[1,3,4]thiadiazol-2-yl)-4-(5-methoxy-benzofuran-2-ylmethoxy)-benzenesulfonamide]: the midpoint of the response on human PPARdelta, the EC50, lay at 480 nM.
With `Cc1cc(SCc2sc(-c3ccc(C(F)(F)F)cc3)nc2C)ccc1OCC(=O)O` [GW501516], in assay [1], the HDL-cholesterol result is given as “raises HDL-cholesterol” and the “plasma LDL-cholesterol” value is listed as “decreases plasma LDL-cholesterol”. Besides, in assay [1] (plasma), the insulin levels entry is “decreases” and the triglycerides entry was “decreases”.
